From PubChem BioAssay (NCI)
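Interpolation was linear, between the two tested concentrations surrounding the appropriate level; five concentrations were tested over 48 hours in 96-well plates. GI50 is the concentration that inhibits growth by half. Definition used: TGI = concentration required for complete inhibition of growth.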

Tests used:
Experiment in all cases: growth of human tumour cells (NCI), 48 h
OVCAR-4 ovarian = system: OVCAR-4 ovarian
CCRF-CEM leukemia = system: CCRF-CEM leukemia
HL-60(TB) leukemia = system: HL-60(TB) leukemia
DU-145 prostate = system: DU-145 prostate
UACC-257 melanoma = system: UACC-257 melanoma
NCI-H226 lung = system: NCI-H226 lung
SF-295 CNS = system: SF-295 CNS
SK-MEL-2 melanoma = system: SK-MEL-2 melanoma
SK-OV-3 ovarian = system: SK-OV-3 ovarian
RXF 393 renal = system: RXF 393 renal

Compound	TGI (OVCAR-4 ovarian) [µM]	TGI (CCRF-CEM leukemia) [µM]	TGI (HL-60(TB) leukemia) [µM]	TGI (DU-145 prostate) [µM]	TGI (UACC-257 melanoma) [µM]	TGI (NCI-H226 lung) [µM]	TGI (SF-295 CNS) [µM]	TGI (SK-MEL-2 melanoma) [µM]	TGI (SK-OV-3 ovarian) [µM]	TGI (RXF 393 renal) [µM]	GI50 (OVCAR-4 ovarian) [µM]	GI50 (CCRF-CEM leukemia) [µM]	GI50 (HL-60(TB) leukemia) [µM]	GI50 (DU-145 prostate) [µM]	GI50 (UACC-257 melanoma) [µM]	GI50 (NCI-H226 lung) [µM]	GI50 (SF-295 CNS) [µM]	GI50 (SK-MEL-2 melanoma) [µM]	GI50 (SK-OV-3 ovarian) [µM]	GI50 (RXF 393 renal) [µM]
C[C@@H]1C[C@@]2(O[C@@H]2C)C(=O)O[C@@H]2CCN3CC=C(COC(=O)[C@]1(C)O)[C@H]23	> 100	> 100	> 100	> 100	> 100	> 100	> 100	> 100	> 100											
COc1cc(/C=C2/C(=O)NC(Cc3cc(OC)c(OC)c(C)c3OC)C(=O)N2Cc2ccccc2)c(OC)c(C)c1OC (configuration not stated)	> 100	> 100	53.3		> 100	> 100	> 100	66.8	> 100	> 100										
OCCNCCNc1c2ccccc2nc2oc3ccccc3c12	34.6	41.9	50.5	23.5	33.2	62	29.6	43.9	40.3		10.2	8.97	12.4	10.1	15.6	20.5	6.02	20.6	13.1	
Cc1cc(=O)oc2cc(OCc3nc4ccccc4c(=O)[nH]3)ccc12	> 100	> 100	> 100			> 100	> 100	> 100	> 100	> 100										
COc1cc2cccc(NC(=O)c3cc(OC)c(OC)c(OC)c3Br)c2cc1OC	34.3	21.5			16.7		40.9	49	59.2											
CCCCCCCCCCCC[n+]1ccc(C(N)=O)cc1	17.5	> 100		17.2	17.8	16.3	11.6	9.13	15.2	5.46	4.73	3.61		4.6	4.24	3.43	2.8	3.51	4.18	1.74
CS/C(c1ccccc1)=[N+](/C)[O-]	> 100	> 81.8	> 100		> 100		> 100	> 100	> 100	> 100										
O=C1C[C@H]2CC3(CC[C@H]2CN1)OCCO3	> 100	> 100	> 100		> 100		> 100	> 100	> 100	> 100										
COc1ccc2nc(C)cc(Nc3ccccc3O)c2c1	> 100	> 100	48	> 100	43.6	> 100	> 100	86.8	> 100		22.4	21.7	21	45.3	19	28	24.5	27.1	> 100	
Cc1ccc(C2=C(c3ccccc3)C(Br)(c3ccccc3)C(c3ccccc3)=C2c2ccc(C)cc2)cc1	> 100	> 100	> 100		> 100	> 100	> 100	> 100	> 100	> 100										
COC(=O)C(CC(=O)Nc1ccc(Cl)c(Cl)c1)C(=O)C(=O)NC1C2CC3CC(C2)CC1C3 (configuration not stated)	> 100	> 100	> 100		> 100	> 100	> 100	> 100	> 100	> 100										
CSC1C(=O)c2ccccc2/C(=N/Nc2nc3ccccc3s2)C1C (configuration not stated)			43	18.3	18.9		> 50	18	> 50				2.14	9.59	8.87		19.7	7.34	35.2	
Cn1c(=O)c(C(=O)NC(=O)OCc2ccccc2)cn(CCSCCOC(=O)NCCCCCCNC(=O)OCCSCCn2cc(C(=O)NC(=O)OCc3ccccc3)c(=O)n(C)c2=O)c1=O	> 100	> 100	> 100			> 100		> 100		> 100										
Cc1ccc(N2C(=O)/C(=C/c3ccc(N(CCC#N)CCC#N)cc3C)N=C2c2cc([N+](=O)[O-])ccc2Cl)cc1	> 100	> 100	> 100		> 100	> 100	> 100	> 100	> 100											
C[CH2][Sn]([CH2]C)([O]C(=O)c1cccc(F)c1)[O][Sn]([CH2]C)([CH2]C)[O]C(=O)c1cccc(F)c1	46.7	34.7	96.5		30.9	33.8	36.9	30.3	> 100	27.7	22.8	4.28	26.6		16.8	18.8	18.7	16.4	> 100	14.5
Cc1ccc(/C=C2\CCCC\C2=N\O)cc1	> 100	> 100	30.7				> 100		> 100											
CC12CC3CC(C1)CC(N=[N+]=[N-])(C3)C2	> 100	> 100			> 100	> 100	> 100	> 100	> 100											
O=C(/C=C1/NC(=O)CS1)Nc1ccccc1	> 100	> 100	> 100			> 100	> 100	> 100	> 100	> 100										
O=C1C[C@@H]2CCCC[C@@H]2C12SCCS2	> 100	> 100	> 100		> 100		> 100	> 100	> 100	> 100										
